Read-outs that look alike come from different tables or passages of the source.
What was measured:
[1] = tested on: CD4 lymphocytes in the blood; details: AIDS patients; cited from earlier work
[2] = in vivo, po; cited from earlier work
viral replication = details: cited from earlier work
HIV protease = details: cited from earlier work
[3] = tested on: H9/HIV-1/IIIB cells cocultured with CEM-SS cells; experiment: Antiviral activity in coculture of CEM-SS cells and permanently infected H9/HIV-1/IIIB cells, RT activity; assay type: cell-based; details: Human immunodeficiency virus 1, IIIB, 96 h; for inhibition at 0.0125 µM: 12.5 nM
Description: The final concentration of free DMSO is less than 0.5%. When using cell lines: The cell lines are maintained in complete culture medium of the following composition: RPMI 1640 (GIBCO, Paisley, Scotland), supplemented with 10% foetal calf serum (SEROMED, Berlin, Germany), 10 mM 4-(2-hydroxyethyl)piperazine-1-ethanesulfonic acid(=HEPES) and 2 mM L-glutamine (AMIMED, Muttenz, Switzerland). […] The test compounds are tested as individual substances or as a combination of two active substances in defined concentration ratios. H9/HIV-1/IIIB cells are mixed, after having been washed twice and having been suspended in fresh medium, with CEM-SS cells in a ratio of 1:50. 100 μl of the cell mixture are dispensed into each well of 96-well tissue culture plates with the wells in each case containing 400 H9/HIV-1/IIIB cells and 2×10^4 CEM-SS cells. Immediately after the cells have been dispensed, two-fold serial dilutions of the test compounds are added (100 μl per well) in each case in sets of six. Instead of this, 100 μl of medium are added to each well for the virus control (VC); CEM-SS cells on their own (without H9/HIV-1/IIIB cells) are used as the control (CC). The final volume is 200 μl/well. […] The virus production is determined as the virus-associated activity of the reverse transcriptase (RT) in accordance with the following method, which has already been described above (see […]., et al., Antimicrob. Agent Chemother. 37(10), 2087-92 (1993)): When carrying out the measurement, 30 μl of reverse transcriptase cocktail are added to each well. The reverse transcriptase cocktail consists of 50 mM Tris (α,α,α-tris(hydroxymethyl)methylamine, Ultra pur, Merck, Germany), pH 7.8; 75 mM KCl, 2 mM dithiothreitol, 5 mM MgCl2; 0.1% Nonidet P-40 (detergent; Sigma, Switzerland), 0.8 mM EDTA, 10 μg/ml poly-A (Pharmacia, Uppsala, Sweden) and 0.16 μg/ml oligo(T)(=pdT(12-18), Pharmacia, Uppsala, Sweden) as template primer. The mixture is filtered through a 0.45 μm Acrodisc filter (Gelman Sciences Inc., Ann Arbor, U.S.A.) and stored at -20° C. […] After mixing, the plate is incubated at 37° C. for 1.5 h. 5 μl of the reaction mixture are transferred to DE81 paper (Whatman, one filter per well). The dried filters are washed three times for 5 min with 300 mM NaCl/25 mM trisodium citrate and then once with ethanol, and air-dried once again. The radioactivity on the filters is measured in a Packard Matrix 96-well counter (Packard, Zurich, Switzerland). The antiretroviral effect is given as the % reduction in RT activity as compared with the VC values. The activities of the individual compounds, and the combinations, mentioned in the title, in the coculture of the CEM-SS cell line and the permanently infected cell line H9/HIV-1/IIIB are determined using the method described above in association with the description of the pharmacological properties. The measurement result is expressed as % reduction of the reverse transcriptase (RT) activity. The results are presented in the following table; measurement results which confirm the occurrence of synergism are emphasized by underlining: […]

[4] = in vivo; cited from earlier work
[5] = tested on: HIV-1/LAV in human peripheral mononuclear blood cells; experiment: Antiviral activity in peripheral mononuclear blood cells infected with HIV-1, cumulative RT activity; assay type: cell-based
Excerpt: For the experiments using peripheral mononuclear blood cells, the cells are isolated from the blood of healthy HIV-seronegative human subjects using a combination of leukaphoresis and counter-current centrifugal elutriation in accordance with known methods (see Alteri, E., et al., Antimicrob. Agent Chemother. 37(10), 2087-92 (1993)).
The lymphocytotrophic isolate HIV-1/LAV (LAV.04/A.301), for example, is used as the virus (see Science 220, 868-71 (1983)).
The final concentration of free DMSO is less than 0.5%.
When peripheral mononuclear blood cells are used: The mixture of mononuclear cells (lymphocytes and monocytes), which is obtained as described above, is cultured, in the presence of 0.25 μg/ml phytohaemagglutinin (Wellcome Diagnostics, Temple Hill, Dartford, England), for two days in RPMI-1640 (GIBCO, Paisley, Scotland), 50 mU/ml penicillin, 50 μg/ml streptomycin (ANIMED, Muttenz, Switzerland), 2 mM L-glutamine (AMIMED, Muttenz, Switzerland) and 10 mM HEPES buffer (GIBCO, Paisley, Scotland). Successful activation is monitored by measuring the increase in cell size (scattergram, FCM analysis). The cells are resuspended in complete medium containing 10% human AB serum (Sigma, St. Louis, U.S.A.) and infected with HIV-1 for 6 h. After the viral adsorption, the cells are washed and resuspended in complete medium which is supplemented with 100 U/ml human recombinant IL-2 (Genzyme, Cambridge, U.S.A.). 9×10^4 cells are plated out per well (0.3 ml) in 96-well plates having U-shaped well bottoms. The antiviral compounds are added either alone or in combination to sets of five cell cultures in each case (pentaplicates) directly following the infection. Two thirds of the culture medium with or without antiviral compound(s) are replaced every three days. The test is concluded on day 13 after infection. The progress of the viral infection is measured by determining the RT activity as described above for the cell lines.
The activities of the individual compounds, and the combinations, specified in the title, in the peripheral mononuclear blood cell culture are determined using the method described above in association with the description of the pharmacological properties. The measurement result is expressed as the cumulative activity of the reverse transcriptase (RT), in cpm/1.25 μl (number of measured ^32 P disintegrations per 1.25 μl of test mixture and minute) on day 17 after the infection. […] The test compound(s) is/are re-added in associated with each change of the medium (on days 0, 3, 6, 10 and 13): […]

For `CC(C)(C)NC(=O)[C@@H]1C[C@@H]2CCCC[C@@H]2CN1C[C@@H](O)[C@H](Cc1ccccc1)NC(=O)[C@H](CC(N)=O)NC(=O)c1ccc2ccccc2n1` [Saquinavir, N-tert-butyldecahydro-2-[2(R)-hydroxy-4-phenyl-3(S)-[[N-2-quinolylcarbonyl-L-asparaginyl]amino]butyl]-(4aS,8aS)-isoquinoline-3(S)-carboxamide], the “surrogate marker (titre of the CD4 lymphocytes in the blood)” value [1] is given as “first positive effects”, the blood levels [2] is given as “useful blood levels were achieved” and the “viral replication in cell experiments” value (viral replication) is given as “suppressed viral replication”. For the same compound, the “effect on HIV protease in vitro” value (HIV protease) was “inhibitory effect”, the inhibition at 0.00626 µM ([3]; read-out: % Inhibition of the RT activity by Saquinavir alone) was 93.8% and the inhibition at 0.00078 µM ([3]; read-out: % Inhibition of the RT activity by Saquinavir alone, 0.78 nM, coculture, day 4) was 6.6%. For the same compound, the inhibition at 0.00156 µM ([3]; read-out: % Inhibition of the RT activity by Saquinavir alone, 1.56 nM, coculture, day 4) was 14.7%, the inhibition at 0.003125 µM ([3]; read-out: % Inhibition of the RT activity by Saquinavir alone, 3.125 nM, coculture, day 4) was 39.3% and the blood levels [4] was “useful blood levels were also achieved”.

With `COCCNC(=O)[C@@H](NC(=O)[C@H](Cc1ccc(OC)c(OC)c1OC)C[C@H](O)[C@H](Cc1ccccc1)NC(=O)OC(C)(C)C)C(C)C` [Example 47, 5(S)-(Boc-Amino)-4(S)-hydroxy-6-phenyl-2(R)-[(2,3,4-trimethoxyphenyl)methyl]hexanoyl-(L)-Val-N-(2-methoxyethyl)amide] the inhibition at 0.003125 µM ([3]; 3.125 nM, coculture, day 4, read-out: % Inhibition of the RT activity by Example 47 title compound alone) was 2.7%, the inhibition at 0.00625 µM ([3]; 6.25 nM, coculture, day 4, read-out: % Inhibition of the RT activity by Example 47 title compound alone) was 1.3% and the inhibition at 0.0125 µM ([3]; coculture, day 4, read-out: % Inhibition of the RT activity by Example 47 title compound alone) was 52%. For the same compound, the “Cumulative RT activity on day 17 after the infection” value (shortened to “Cumulative RT activity”) ([5]; Example 47 concentration 7.5 alone (unit not given)) was 7909 cpm/μl, the “Cumulative RT activity” value ([5]; Example 47 concentration 15 alone (unit not given)) was 9132 cpm/μl and the “Cumulative RT activity” value ([5]; Example 47 concentration 30 alone (unit not given)) was 8457 cpm/μl. For the same compound, the “Cumulative RT activity” value ([5]; Example 47 concentration 60 alone (unit not given)) was 1823 cpm/μl and the “Cumulative RT activity” value ([5]; Example 47 concentration 120 alone (unit not given)) was 49 cpm/μl.

Compound `CC(C)(C)NC(=O)[C@@H]1CN(Cc2cccnc2)CCN1C[C@@H](O)C[C@@H](Cc1ccccc1)C(=O)N[C@H]1c2ccccc2C[C@H]1O` [Indinavir] has an inhibition at 0.0125 µM ([3]; coculture, day 4, read-out: % Inhibition of the RT activity by Indinavir alone) of 3.2% and an inhibition at 0.025 µM ([3]; 25 nM, coculture, day 4, read-out: % Inhibition of the RT activity by Indinavir alone) of 59.7%.
